pIC50: −log10 of the molar value. Calls of active or inactive are those of the source. The calls are words filed in the database; no cut-off is given here.
Legend:
[1] = system: HEK293; assay: Reduction in c-myc level in human HEK293 cell nucleus stably transfected with TOP reporter gene at 1 to 20 uM after 24 hrs by Western blot analysis; format: functional, cell-based
[2] = system: HCT-116; assay: Cytotoxicity against human Wnt-dependent HCT116 cells after 24 hrs by fluorometric microculture cytotoxicity assay; format: functional, cell-based; conditions: HCT-116, 24 h
[3] = system: HEK293; assay: Reduction in beta-catenin level in human HEK293 cell cytosol stably transfected with TOP reporter gene at 1 to 20 uM after 24 hrs by Western blot analysis; format: functional, cell-based
[4] = system: HEK293; assay: Inhibition of Wnt/beta-catenin signaling in HEK293 cells stably transfected with FOP reporter gene assessed as TCF/beta-catenin transcriptional activity after 24 hrs by FOP activity/luciferase reporter gene assay; format: cell-based; conditions: Homo sapiens
[5] = Cytotoxicity against human Wnt-dependent DLD1 cells after 24 hrs by fluorometric microculture cytotoxicity assay; format: functional, cell-based; conditions: DLD-1, 24 h
[6] = system: HEK293; assay: Reduction in beta-catenin level in human HEK293 cell nucleus stably transfected with TOP reporter gene at 20 uM after 24 hrs by Western blot analysis in presence of 1 uM MG132; format: functional, cell-based
[7] = system: HEK293; assay: Inhibition of Wnt/beta-catenin signaling in HEK293 cells stably transfected with TOP reporter gene assessed as TCF/beta-catenin transcriptional activity after 24 hrs by TOP activity/luciferase reporter gene assay; format: cell-based; conditions: Homo sapiens; for pIC50: HEK293, 24 h
[8] = system: HEK293; assay: Reduction in beta-catenin level in human HEK293 cell nucleus stably transfected with TOP reporter gene at 1 to 20 uM after 24 hrs by Western blot analysis; format: functional, cell-based
[9] = system: SW480; assay: Cytotoxicity against human Wnt-dependent SW480 cells after 24 hrs by fluorometric microculture cytotoxicity assay; format: functional, cell-based; conditions: SW480, 24 h
[10] = system: RKO; assay: Cytotoxicity against human Wnt-independent RKO cells after 24 hrs by fluorometric microculture cytotoxicity assay; format: functional, cell-based
[11] = system: HEK293; assay: Cytotoxicity against human HEK293 cells after 24 hrs by fluorometric microculture cytotoxicity assay; format: cell-based; conditions: HEK293, 24 h

For `COc1cc(/C=C/C(=O)OCCCc2cc(OC)c3c(c2)[C@@H](COC(=O)/C=C/c2ccc(O)c(OC)c2)[C@H](c2ccc(O)c(OC)c2)O3)ccc1O`, the inhibition [1] was “Active”, the pIC50 [2] was less than 4.64 and the inhibition [3] was “Active”. The Activity [4] was “inactive”, the pIC50 [5] was less than 4.40 and the inhibition [6] was “inactive”. For the same compound, the inhibition [7] was “Dose-dependent effect”, the pIC50 [7] was 6.00 and the inhibition [8] was “Active”. It also gave a pIC50 [9] of less than 4.40, a pIC50 [10] of 4.60 and a pIC50 [11] of 4.52.
With `COc1cc(/C=C/C(=O)OCCCc2ccc(O[C@@H](COC(=O)/C=C/c3ccc(O)c(OC)c3)[C@@H](O)c3ccc(O)c(OC)c3)c(O)c2)ccc1O` the pIC50 [2] was less than 4.41, the Activity [4] was “inactive” and the pIC50 [5] was less than 4.40. The inhibition [7] was “Dose-dependent effect”, the pIC50 [7] was 5.35 and the pIC50 [9] was less than 4.40. For the same compound, the pIC50 [10] was 4.64 and the pIC50 [11] was 4.62.
In the case of `CC1(C)CC[C@]2(C(=O)O)CC[C@]3(COC(=O)/C=C/c4ccc(O)c(O)c4)C(=CC[C@@H]4[C@@]5(C)CC[C@H](OC(=O)/C=C/c6ccc(O)c(O)c6)C(C)(C)[C@@H]5CC[C@]43C)[C@@H]2C1`, the pIC50 [2] was less than 4.40, the pIC50 [5] was less than 4.40 and the pIC50 [7] was 4.83. It also gave a pIC50 [9] of less than 4.40, a pIC50 [10] of less than 4.40 and a pIC50 [11] of 4.53.
For `COc1cc(/C=C/C(=O)OCCCc2ccc(O[C@@H](COC(=O)/C=C/c3ccc(O)c(OC)c3)[C@@H](O)c3ccc(O)c(OC)c3)c(OC)c2)ccc1O` (relative stereo), the pIC50 [2] was less than 4.40, the Activity [4] was “inactive” and the pIC50 [5] was less than 4.40. For the same compound, the inhibition [7] was “Dose-dependent effect”, the pIC50 [7] was 5.20 and the pIC50 [9] was less than 4.40. For the same compound, the pIC50 [10] was 4.44 and the pIC50 [11] was 4.58.
For `COc1cc(/C=C/C(=O)OCCCc2cc(OC)c3c(c2)[C@@H](COC(=O)/C=C/c2ccc(O)c(OC)c2)[C@H](c2cc(OC)c(O)c(OC)c2)O3)ccc1O`, the pIC50 [2] was less than 4.40, the Activity [4] was “inactive” and the pIC50 [5] was less than 4.40. The inhibition [7] was “Dose-dependent effect”, the pIC50 [7] was 5.72 and the pIC50 [9] was less than 4.40. For the same compound, the pIC50 [10] was less than 4.40 and the pIC50 [11] was 4.44.
